Data taken from US20020022652A1, “Methylnogarol compositions and uses thereof” (priority 2000, published 2002).
Like-named read-outs stand apart in the source and are kept apart here.

Test system: murine fibrosarcomas (RIF−1 cells)
Assay type: in vivo
Settings: for Mean TVQT (± SE): RIF-1 tumors in C3H mice, paclitaxel 10 mg/kg, camptothecin 6 mg/kg, combinations with second agent 30 min after menogaril; for Mean TVQT (± SE) / Mean TVQT ± S.E.: menogaril 50 mg/kg; for Delay: median TVQT of treated group minus median of control; for Delay / TVQT/CTVQT / Median (TVQT): same doses; for Mean TVQT ± S.E.: RIF-1 tumors in female C3H mice, single i.p. injection, cisplatin 4 mg/kg, combination with cisplatin 30 min after menogaril, 4 mice per group
Description: Transplantable experimental murine fibrosarcomas (2×10^5 RIF−1 cells) were grown intradermally in the flanks of 3 month old female C3H mice (Charles River, Holister, Calif.). When the tumors reached a volume of approximately 100 mm^3, the mice were randomly assigned to each experimental group (4 mice per group).
The chemopotentiator, menogaril, was obtained from NCI and was made to the appropriate concentration in DMSO. Cisplatin (David Bull Laboratories- Mulgrave, Australia, lot. 5201844x) was made to the appropriate concentration in water for injection. The compositions were injected systemically (i.e., intraperitoneally, i.p.), in a volume of 100 microliters. For the treatment of group 3, the chemopotentiator, menogaril, was injected 30 minutes prior to the injection of cisplatin. After treatment, the growth of the tumors was monitored three times per week by caliper measurements of three perpendicular diameters of the tumor and calculation of tumor volume from the formula: […]
The tumors were followed until they reached a size of four times their day zero treatment volume (TVQT), or up to 30 days after treatment, whichever came first. The data is expressed as the “tumor volume quadrupling time” (TVQT) mean and as the “delay.” Mean TVQT is the mean days required for individual tumors to grow to four times the tumor volume at the initial treatment day. The “delay” is the median of days required for a tumor to grow to four times the mean size of the treated group, minus the median of days required to grow to four times the mean size of the control group. The data is also expressed as the ratio of the tumor volume quadrupling time of the treated tumor over the untreated control group (TVQT/CTVQT). Increasing values of this ratio indicate increased antitumor response.
The ability of menogaril to enhance the effect of camptothecin or paclitaxel was also studied, using the same methods described in Example 1. […] For each injection, 100 microliters was injected.

[1] = Example 2, Table 4, ratio of treated group over untreated control, IP
[2] = Example 1, Table 3, ratio of TVQT of treated group over untreated control, i.p.

| SMILES | Mean TVQT (± SE) (Example 2, Table 4, IP) [days] | Delay (Example 2, Table 4, IP) | TVQT/CTVQT [1] | Median (TVQT) (Example 2, Table 4, IP) [days] | Mean TVQT ± S.E. (Example 1, Table 3) [days] | Delay (Example 1, Table 3, i.p.) [days] | TVQT/CTVQT [2] | Median (TVQT) (Example 1, Table 3, i.p.) [days] |
| --- | --- | --- | --- | --- | --- | --- | --- | --- |
| CC[C@@]1(O)C(=O)OCc2c1cc1n(c2=O)Cc2cc3ccccc3nc2-1 [Camptothecin, camptothecin] | 9.9 ± 0.5 | 1.44 | 1.1 | 9.8 | – | – | – | – |
| N.N.[Cl][Pt][Cl] [Cisplatin, cis-diamminedichloroplatinum II] | – | – | – | – | 8.4 ± 0.3 | 2.10 | 1.3 | 8.1 |
| CO[C@@H]1C[C@](C)(O)Cc2cc3c(c(O)c21)C(=O)c1c(O)cc2c(c1C3=O)O[C@@H]1O[C@@]2(C)[C@H](O)[C@@H](N(C)C)[C@@H]1O [Menogaril, 2,6-Epoxy-2H-naphthaceno[1,2-b]oxocin-9,16-dione, 4-(dimethylamino)-3,4,5,6,11,12,13,14-octahydro-3,5,8,10,13-pentahydroxy-11-methoxy-6,13-dimethyl-,(2alpha,3beta,4alpha,5beta,6alpha, 11 alpha, 13alpha)-, (P)-] | 10.2 ± 0.8 | 1.84 | 1.2 | 10.2 | 9.1 ± 0.5 | 3.31 | 1.4 | 9.4 |
| CC(=O)O[C@H]1C(=O)[C@@]2(C)[C@H]([C@H](OC(=O)c3ccccc3)[C@]3(O)C[C@H](OC(=O)[C@H](O)[C@@H](NC(=O)c4ccccc4)c4ccccc4)C(C)=C1C3(C)C)[C@]1(OC(C)=O)CO[C@@H]1C[C@@H]2O [Paclitaxel, paclitaxel] | 9.0 ± 0.4 | 0.36 | 1.0 | 8.7 | – | – | – | – |
